Test: xn = mol fraction of the nth substance listed
Details: 101 kPa

c1ccc2sccc2c1 + CCCC[N+]1(C)CCCC1.N#C[C-](C#N)C#N
x1 = 1
Details	viscosity [mPa·s]
308.15 K	2.94
318.15 K	2.06
328.15 K	1.74
338.15 K	1.49
348.15 K	1.29
358.15 K	1.14

CCCC[N+]1(C)CCCC1.N#C[C-](C#N)C#N + c1ccc2sccc2c1
viscosity [mPa·s]
Details	x2 = 0	x2 = 0.1112	x2 = 0.2212	x2 = 0.3565	x2 = 0.5267	x2 = 0.6111	x2 = 0.6767
308.15 K	–	18.8	17	14.78	–	10.45	9.23
318.15 K	15.44	14.1	12.77	11.13	9.01	7.87	6.89
328.15 K	12	10.97	9.95	8.69	–	6.19	5.41
338.15 K	9.59	8.77	7.96	–	5.68	4.98	4.36
348.15 K	7.81	7.16	6.49	5.67	4.65	4.1	3.59
358.15 K	6.47	5.93	5.38	4.74	3.88	3.44	3.03
